Data set [1] can be described thus: Stability of the radiolabeled product by TLC. The data set is classed as physicochemical. The conditions noted are these: saline solution, after 10 hours, silica gel 60 F254. The protocol:
The final product was tested on TLC (silica gel 60 F254) after 10 hours and found stable.

The test system of the next data set is Sprague-Dawley rats. Briefly: PET imaging, bio-distribution. The data set is classed as in vivo. The following applies: normal female Sprague-Dawley rats, 50 μCi via tail vein, imaged after 30 minutes. The protocol:
The exemplary [^18F] labeled amine fluorocyanoborane according to the present embodiments, Compound [^18F]K-I4, was injected into normal rats, and was monitored by a PET/CT Philips camera.
Four normal, female Sprague-Dawley rats (250-300 grams each) were injected via the tail vein with 50 μCi of Compound [^18F]K-I4 solution in saline (4.5 mCi/ml). Fifteen minutes after injection, the rats were anesthetized with 45 mg Ketamine and 24 mg Acepromazin, and after 30 minutes each rat was imaged for 15 minutes.

The next data set relates to Candida albicans 615. The data set is classed as cell-based.
Data set [2] deals with Candida glabrata 4475 (resistant to azoles). The data set is classed as cell-based. The conditions noted are these: Nakaseomyces glabratus, 24 h, read-out: MIC.
The next data set has as its system Candida albicans CBS 562. The data set is classed as cell-based. The following applies: for MIC: read-out: MIC (column A).
The test system of another data set is Candida albicans 607. The data set is classed as cell-based.
The nature of another data set: in vivo. The conditions noted are these: male, ICR, mouse, iv.
The subject of another data set is Candida glabrata 4787. The data set is classed as cell-based.
The test system of another data set is Candida glabrata 4681. The data set is classed as cell-based. The conditions noted are these: footnote c.
The next data set deals with Rhizopus oryzae. Briefly: microbe, parasite or virus in culture. The data set is classed as cell-based. The following applies: Rhizopus arrhizus.
For data set [3] the following is noted: long chain lengths.
[4] abbreviates: Candida albicans 615, MIC-0, 24 h, 35° C., read-out: MIC.
[5] abbreviates: Candida glabrata 4475 (resistant to azoles), footnote c.
The mark [6] stands for this setting: CBS562, Candida albicans CBS 562, MIC-0, 24 h, 35° C.
Where [7] appears, read: Candida albicans 607, MIC-0, 24 h, 35° C., read-out: MIC.
Where [8] appears, read: Nakaseomyces glabratus, Candida glabrata 4787, read-out: MIC.
Where [9] appears, read: Candida albicans, 615, 24 h, read-out: MIC.
[10] abbreviates: Candida albicans, 607, 24 h, read-out: MIC.

In brackets after ≈: the same amount, converted by molar mass. Read-outs that look alike come from different tables or passages of the source. Where only a bound is given, the exact number is not on record here.

The compound `C[N+](C)(C)[BH-](F)C#N` (stereo not drawn) came in with a melting point of 53 °C.
As for `CCCCCCCCCCC[N+](C)(C)[BH-]([18F])C#N` (stereo not drawn) [[^18F]K-I4, [^18F]dimethyl-undecyl-amine cyanofluoroborane], the “stability on TLC” value in [1] is reported as “stable”. Besides, in the data set with Sprague-Dawley rats, the “bio-distribution by PET/CT” value is listed as “uptake in the rat's bones”.
With `CCCCCCC(C)(O)C[N+](C)(C)[BH2-]C#N` (stereo not drawn) [K-O, 1-dimethylamino-2-methyl-octan-2-ol cyanoborane], the MIC with Candida albicans 615 (setting [4]) is 1100 µM (≈ 249 µg/mL); in data set [2] (setting [5]), greater than 0.25 µg/mL; in the data set with Candida albicans CBS 562 (setting [6]), 2210 µM (≈ 500 µg/mL); in the data set with Candida albicans 607 (setting [7]) it was 1100 µM (≈ 249 µg/mL).
`CCCCCCCCCCC[N+](C)(C)[B-](Br)(Br)C#N` [K-I2, dimethyl-undecyl-amine cyanodibromoborane] displayed an MTD in the data set “in vivo” of 73.1 µmol/kg. The MIC is 39 µM (≈ 15.4 µg/mL) in the data set on Candida albicans 615 (setting [4]); 32 µM (≈ 12.7 µg/mL) with Candida glabrata 4787 (setting [8]); 39 µM (≈ 15.4 µg/mL) in the data set on Candida albicans CBS 562 (setting [6]); 39 µM (≈ 15.4 µg/mL) with Candida albicans 607 (setting [7]); 32^c μg per liter in the data set on Candida glabrata 4681.
Turning to `C[N+](C)(CCCCCCCCCC[N+](C)(C)[BH-](Br)C#N)[BH-](Br)C#N` (stereo not drawn) [K-J1, N,N,N′,N′-tetramethyldecane-1,10-diamine bis-cyanobromoborane], the MIC with Candida albicans 615 (setting [4]) was 140 µM (≈ 64.9 µg/mL); in the data set on Candida glabrata 4787 (setting [8]) it was 65 µM (≈ 30.2 µg/mL); in data set [2] (setting [5]), 0.065 µg/mL (≈ 0.14 µM); in the data set with Candida albicans CBS 562 (setting [6]), 140 µM (≈ 64.9 µg/mL); with Candida albicans 607 (setting [7]) it was 140 µM (≈ 64.9 µg/mL); against Candida glabrata 4681, 65^c μg per liter.
For `CCCCCCCCCCC[N+](C)(C)[B-](F)(Br)C#N` (stereo not drawn) [K-I3, dimethyl-undecyl-amine cyanofluorobromoborane], the MIC in the data set on Rhizopus oryzae came out at 63 µg/mL (≈ 188 µM); in the data set with Candida albicans CBS 562 (setting [6]) it was 7.8 µM (≈ 2.61 µg/mL).
Turning to `CCCCCCCCCCCCCCCCC[N+](C)(C)[BH2-]C#N` [K-S, heptadecyl-dimethyl-amine cyanoborane], in [3], the solubility result is on record as “solubility problems”.
Consider `C[N+](C)([BH2-]C#N)CCCCCCCCCC[N+](C)(C)[BH2-]C#N` [K-J, N,N,N′,N′-tetramethyldecane-1,10-diamine bis-cyanoborane], for which the MIC is 817 µM (≈ 250 µg/mL) in the data set with Candida albicans 615 (setting [9]); 0.065 µg/mL (≈ 0.212 µM) in [2]; 408 µM (≈ 125 µg/mL) in the data set on Candida albicans CBS 562 (Candida albicans, CBS562, 24 h); 408 µM (≈ 125 µg/mL) in the data set on Candida albicans 607 (setting [10]).
Turning to `CCCCCCCCCCC[N+](C)(C)[BH-](F)C#N` (stereo not drawn) [K-I4, dimethyl-undecyl-amine cyanofluoroborane], the MIC in the data set on Candida albicans 615 (setting [4]), in the data set on Candida albicans CBS 562 (setting [6]) and in the data set on Candida albicans 607 (setting [7]) was 64 µM (≈ 16.4 µg/mL) each time.
`C[N+](C)([BH2-]C(=O)O)CCCCCCCCCC[N+](C)(C)[BH2-]C(=O)O` [K-J3, N,N,N′,N′-tetramethyldecane-1,10-diamine bis-carboxyborane]: the MIC in the data set on Candida albicans 615 (setting [4]) was 907 µM (≈ 312 µg/mL); in the data set with Candida glabrata 4787 (setting [8]) it was 65 µM (≈ 22.4 µg/mL); in data set [2] (setting [5]), 0.0312 µg/mL (≈ 0.0907 µM); with Candida albicans CBS 562 (setting [6]), 188 µM (≈ 64.7 µg/mL); in the data set with Candida albicans 607 (setting [7]), 188 µM (≈ 64.7 µg/mL); against Candida glabrata 4681 it was 65^c μg per liter.
In the case of `CCCCCCCCCCC[N+](C)(C)[BH-](Br)C#N` (stereo not drawn) [K-I1, dimethyl-undecyl-amine cyanobromoborane], the MIC in the data set on Candida albicans 615 (setting [4]) was determined as 49 µM (≈ 15.5 µg/mL); in the data set with Candida glabrata 4787 (setting [8]) it was 15.6 µM (≈ 4.95 µg/mL); in [2] (setting [5]), 0.0078 µg/mL (≈ 0.0246 µM); in the data set with Rhizopus oryzae, 63 µg/mL (≈ 199 µM); in the data set on Candida albicans CBS 562 (setting [6]), 49 µM (≈ 15.5 µg/mL); in the data set on Candida albicans 607 (setting [7]) it was 49 µM (≈ 15.5 µg/mL). Besides, the “MIC” value in the data set with Candida glabrata 4681 was 7.8^c μg per liter.
Consider `C[N+](C)(C)[B-](Br)(Br)C#N` [K-E, trimethyl-amine cyanodibromoborane], for which the MIC is greater than 1970 µM in the data set on Candida albicans 615 (setting [4]), greater than 0.5 µg/mL in data set [2] (setting [5]), 1970 µM (≈ 504 µg/mL) with Candida albicans CBS 562 (setting [6]) and greater than 1970 µM with Candida albicans 607 (setting [7]).
With `C[N+](C)(CCCCCCCCCC[N+](C)(C)[B-](Br)(Br)C#N)[B-](Br)(Br)C#N` [K-J2, N,N,N′,N′-tetramethyldecane-1,10-diamine bis-cyanodibromoborane], the MIC in the data set on Candida albicans 615 (setting [9]) was 104 µM (≈ 64.7 µg/mL); with Candida glabrata 4787 (Nakaseomyces glabratus, 4787, read-out: MIC), 65 µM (≈ 40.4 µg/mL); in [2] it was 0.065 µg/mL (≈ 0.105 µM); with Candida albicans CBS 562 (Candida albicans, CBS562, 24 h) it was 104 µM (≈ 64.7 µg/mL); in the data set with Candida albicans 607 (setting [10]), 104 µM (≈ 64.7 µg/mL); against Candida glabrata 4681, 65^c μg per liter.
`COC(=O)[B-](F)(F)[N+](C)(C)C` came in with a melting point of 66 °C.
`C[N+](C)(C)[B-](F)(F)C#N`: the melting point came out at 48 °C.
With `C[C@@H]1[C@H](O)[C@@H](C)/C=C/C=C/C=C/C=C/C=C/C=C/C=C/[C@H](O[C@@H]2O[C@H](C)[C@@H](O)[C@H](N)[C@@H]2O)C[C@@H]2O[C@](O)(C[C@@H](O)C[C@@H](O)[C@H](O)CC[C@@H](O)C[C@@H](O)CC(=O)O[C@H]1C)C[C@H](O)[C@H]2C(=O)O` [CAF1, Amphotericin B, reference compound], the “MIC” value in the data set on Candida albicans 615 (Candida albicans 615, MIC-0, 24 h, 35° C.) is 0.27 µM (≈ 0.25 µg/mL); against Candida albicans 607 (Candida albicans 607, MIC-0, 24 h, 35° C.) it was 0.27 µM (≈ 0.25 µg/mL). For the same compound, in the data set on Candida albicans CBS 562 (Candida albicans CBS 562, MIC-0, 24 h, 35° C.), the “MIC (column A)” value was determined as 0.54 µM (≈ 0.499 µg/mL).

The values above are taken from patent US20100284914A1 (priority 2005, published 2010).
